Consider 23 compounds from patent US10836725B2, “Modulators of the integrated stress pathway” (Calico Life Sciences LLC, priority 2016, dated 2020).

For orientation: EC50 means the concentration giving half of the maximal effect.

Bounds are passed on as bounds.

In this experiment the test system is ATF4 luciferase reporter. Description: ATF4-Luc assay in HEK293T cells carrying the ATF4 luciferase reporter (in vitro model of VWMD). The following applies: Homo sapiens, HEK-293T, 1 μg/mL tunicamycin, 7 hours, luminescence (One Glo). Type of experiment: cell-based, human. The essentials: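 Reporter cells were stably generated by retroviral transduction and puromycin selection, then seeded at 30,000 cells/well. Next day, cells received 1 μg/mL tunicamycin with 200 nM test compound for 7 h, and luciferase luminescence was read with a one-step reagent. Values reported as EC50.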
In the case of `O=C(COc1ccc(Cl)c(F)c1)NC12CC(C(=O)NCc3ccccc3F)(C1)C2` [Compound 210, 3-[2-(4-chloro-3-fluorophenoxy)acetamido]-N-[(2-fluorophenyl)methyl]bicyclo[1.1.1]pentane-1-carboxamide], the EC50 is above 2000 nM.

Take `Cc1cc(CCNC(=O)C23CC(NC(=O)COc4ccc(Cl)c(F)c4)(C2)C3)cc(C)n1` [Compound 211, 3-[2-(4-chloro-3-fluorophenoxy)acetamido]-N-[2-(2,6-dimethylpyridin-4-yl)ethyl]bicyclo[1.1.1]pentane-1-carboxamide]: the 50% effective concentration (EC50) lay in the range of 1000 to 2000 nM.

As to `CC(C)Cc1cc(CNC(=O)C23CC(NC(=O)COc4ccc(Cl)c(F)c4)(C2)C3)on1` [Compound 212, 3-[2-(4-chloro-3-fluorophenoxy)acetamido]-N-{[3-(2-methylpropyl)-1,2-oxazol-5-yl]methyl}bicyclo[1.1.1]pentane-1-carboxamide], the EC50 was above 2000 nM.

Turning to `O=C(COc1ccc(Cl)c(F)c1)NC12CC(C(=O)NCCc3ccc(C(F)(F)F)cn3)(C1)C2` [Compound 213, 3-[2-(4-chloro-3-fluorophenoxy)acetamido]-N-{2-[5-(trifluoromethyl)pyridin-2-yl]ethyl}bicyclo[1.1.1]pentane-1-carboxamide], the EC50 was above 2000 nM.

With `Cc1cccc(-c2nc(CNC(=O)C34CC(NC(=O)COc5ccc(Cl)c(F)c5)(C3)C4)cs2)c1` [Compound 214, 3-[2-(4-chloro-3-fluorophenoxy)acetamido]-N-{[2-(3-methylphenyl)-1,3-thiazol-4-yl]methyl}bicyclo[1.1.1]pentane-1-carboxamide], the concentration for a half-maximal effect (EC50) was above 2000 nM.

As for `O=C(COc1ccc(Cl)c(F)c1)NC12CC(C(=O)NCc3ccc(C(F)(F)F)o3)(C1)C2` [Compound 215, 3-[2-(4-chloro-3-fluorophenoxy)acetamido]-N-{[5-(trifluoromethyl)furan-2-yl]methyl}bicyclo[1.1.1]pentane-1-carboxamide], the concentration giving a half-maximal response (EC50) was above 2000 nM.

As to `COc1cccc(CNC(=O)C23CC(NC(=O)COc4ccc(Cl)c(F)c4)(C2)C3)c1` [Compound 216, 3-[2-(4-chloro-3-fluorophenoxy)acetamido]-N-[(3-methoxyphenyl)methyl]bicyclo[1.1.1]pentane-1-carboxamide], the EC50 is above 2000 nM.

`CCc1nccc(CNC(=O)C23CC(NC(=O)COc4ccc(Cl)c(F)c4)(C2)C3)n1` [Compound 217, 3-[2-(4-chloro-3-fluorophenoxy)acetamido]-N-[(2-ethylpyrimidin-4-yl)methyl]bicyclo[1.1.1]pentane-1-carboxamide]: the EC50 was above 2000 nM.

Turning to `O=C(COc1ccc(Cl)c(F)c1)NC12CC(C(=O)NCc3cccc(Cl)c3)(C1)C2` [Compound 219, 3-[2-(4-chloro-3-fluorophenoxy)acetamido]-N-[(3-chlorophenyl)methyl]bicyclo[1.1.1]pentane-1-carboxamide], the EC50 is above 2000 nM.

As to `Cc1noc(C)c1CCCNC(=O)C12CC(NC(=O)COc3ccc(Cl)c(F)c3)(C1)C2` [Compound 220, 3-[2-(4-chloro-3-fluorophenoxy)acetamido]-N-[3-(3,5-dimethyl-1,2-oxazol-4-yl)propyl]bicyclo[1.1.1]pentane-1-carboxamide], the EC50 was above 2000 nM.

Turning to `Cc1ccnc(CNC(=O)C23CC(NC(=O)COc4ccc(Cl)c(F)c4)(C2)C3)c1` [Compound 221, 3-[2-(4-chloro-3-fluorophenoxy)acetamido]-N-[(4-methylpyridin-2-yl)methyl]bicyclo[1.1.1]pentane-1-carboxamide], the 50% effective concentration (EC50) is above 2000 nM.

Take `O=C(COc1ccc(Cl)c(F)c1)NC12CC(C(=O)NCc3ccno3)(C1)C2` [Compound 222, 3-[2-(4-chloro-3-fluorophenoxy)acetamido]-N-[(1,2-oxazol-5-yl)methyl]bicyclo[1.1.1]pentane-1-carboxamide]: the concentration for a half-maximal effect (EC50) was above 2000 nM.

Turning to `O=C(COc1ccc(Cl)c(F)c1)NC12CC(C(=O)NCc3nnc4n3CCCC4)(C1)C2` [Compound 223, 3-[2-(4-chloro-3-fluorophenoxy)acetamido]-N-[(5,6,7,8-tetrahydro[1,2,4]triazolo[4,3-a]pyridin-3-yl)methyl]bicyclo[1.1.1]pentane-1-carboxamide], the concentration for a half-maximal effect (EC50) is above 2000 nM.

With `O=C(COc1ccc(Cl)c(F)c1)NC12CC(C(=O)NCc3ccccn3)(C1)C2` [Compound 224, 3-[2-(4-chloro-3-fluorophenoxy)acetamido]-N-[(pyridin-2-yl)methyl]bicyclo[1.1.1]pentane-1-carboxamide], the EC50 is above 2000 nM.

In the case of `O=C(COc1ccc(Cl)c(F)c1)NC12CC(C(=O)NCc3ccc(OC(F)(F)F)cc3)(C1)C2` [Compound 225, 3-[2-(4-chloro-3-fluorophenoxy)acetamido]-N-{[4-(trifluoromethoxy)phenyl]methyl}bicyclo[1.1.1]pentane-1-carboxamide], the concentration giving a half-maximal response (EC50) is above 2000 nM.

As to `N#Cc1ccc(CNC(=O)C23CC(NC(=O)COc4ccc(Cl)c(F)c4)(C2)C3)cn1` [Compound 226, 3-[2-(4-chloro-3-fluorophenoxy)acetamido]-N-[(6-cyanopyridin-3-yl)methyl]bicyclo[1.1.1]pentane-1-carboxamide], the concentration giving a half-maximal response (EC50) was above 2000 nM.

As to `CC(C)c1ccc(CNC(=O)C23CC(NC(=O)COc4ccc(Cl)c(F)c4)(C2)C3)cc1` [Compound 227, 3-[2-(4-chloro-3-fluorophenoxy)acetamido]-N-{[4-(propan-2-yl)phenyl]methyl}bicyclo[1.1.1]pentane-1-carboxamide], the concentration giving a half-maximal response (EC50) is above 2000 nM.

Regarding `Cc1cnc(CNC(=O)C23CC(NC(=O)COc4ccc(Cl)c(F)c4)(C2)C3)cn1` [Compound 228, 3-[2-(4-chloro-3-fluorophenoxy)acetamido]-N-[(5-methylpyrazin-2-yl)methyl]bicyclo[1.1.1]pentane-1-carboxamide], the 50% effective concentration (EC50) was above 2000 nM.

As for `COCc1ccc(CNC(=O)C23CC(NC(=O)COc4ccc(Cl)c(F)c4)(C2)C3)cc1` [Compound 229, 3-[2-(4-chloro-3-fluorophenoxy)acetamido]-N-{[4-(methoxymethyl)phenyl]methyl]bicyclo[1.1.1]pentane-1-carboxamide], the half-maximal effective concentration (EC50) was above 2000 nM.

In the case of `CCc1csc(CCNC(=O)C23CC(NC(=O)COc4ccc(Cl)c(F)c4)(C2)C3)n1` [Compound 230, 3-[2-(4-chloro-3-fluorophenoxy)acetamido]-N-[2-(4-ethyl-1,3-thiazol-2-yl)ethyl]bicyclo[1.1.1]pentane-1-carboxamide], the half-maximal effective concentration (EC50) was above 2000 nM.

For `O=C(COc1ccc(Cl)c(F)c1)NC12CC(C(=O)NCc3cc(F)cc(C(F)(F)F)c3)(C1)C2` [Compound 231, 3-[2-(4-chloro-3-fluorophenoxy)acetamido]-N-{[3-fluoro-5-(trifluoromethyl)phenyl]methyl}bicyclo[1.1.1]pentane-1-carboxamide], the concentration giving a half-maximal response (EC50) was above 2000 nM.

Turning to `COc1cccc(CNC(=O)C23CC(NC(=O)COc4ccc(Cl)c(F)c4)(C2)C3)n1` [Compound 232, 3-[2-(4-chloro-3-fluorophenoxy)acetamido]-N-[(6-methoxypyridin-2-yl]methyl]bicyclo[1.1.1]pentane-1-carboxamide], the EC50 is above 2000 nM.

On to `O=C(COc1ccc(Cl)c(F)c1)NC12CC(C(=O)NCc3ccncc3)(C1)C2` [Compound 233, 3-[2-(4-chloro-3-fluorophenoxy)acetamido]-N-[(pyridin-4-yl]methyl]bicyclo[1.1.1]pentane-1-carboxamide], for which the EC50 was above 2000 nM.
